Tested on: 292921-168-R-J2-PDC KRAS tumor spheroid viability
Experiment: Anticancer human tumor 292921-168-R-J2-PDC patient-derived pancreatic carcinoma cell line growth inhibition [KRAS2]
Conditions: spheroids with HUVEC and MSC; for IC50: curve of first compound; for viability, T/C: stronger effect = lower value
In short: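 KRAS-mutant tumor cells were grown as spheroids with HUVEC endothelial cells and human MSCs as stroma. Targeted agents were tested alone and with KRAS pathway inhibitors. Doses started at or near clinical Cmax, or 10 microM, descending half-log.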

[1] = second compound 0.1 µM, first compound 0.0316 µM
[2] = second compound 0.1 µM, first compound 0.1 µM
[3] = second compound 0.1 µM, first compound 0.316 µM
[4] = second compound 0.1 µM, first compound 1 µM
[5] = second compound 0.1 µM, first compound 3.16 µM
[6] = second compound 0.1 µM, first compound 10 µM
[7] = second compound 0.316 µM, first compound 0.0316 µM
[8] = second compound 0.316 µM, first compound 0.1 µM
[9] = second compound 0.316 µM, first compound 0.316 µM
[10] = second compound 0.316 µM, first compound 1 µM
[11] = second compound 0.316 µM, first compound 3.16 µM
[12] = second compound 0.316 µM, first compound 10 µM
[13] = second compound 1 µM, first compound 0.0316 µM
[14] = second compound 1 µM, first compound 0.1 µM
[15] = second compound 1 µM, first compound 0.316 µM
[16] = second compound 1 µM, first compound 1 µM
[17] = second compound 1 µM, first compound 3.16 µM
[18] = second compound 1 µM, first compound 10 µM
[19] = second compound 3.16 µM, first compound 0.0316 µM
[20] = second compound 3.16 µM, first compound 0.1 µM
[21] = second compound 3.16 µM, first compound 0.316 µM
[22] = second compound 3.16 µM, first compound 1 µM
[23] = second compound 3.16 µM, first compound 3.16 µM
[24] = second compound 3.16 µM, first compound 10 µM
[25] = second compound 10 µM, first compound 0.0316 µM
[26] = second compound 10 µM, first compound 0.1 µM
[27] = second compound 10 µM, first compound 0.316 µM
[28] = second compound 10 µM, first compound 1 µM
[29] = second compound 10 µM, first compound 3.16 µM
[30] = second compound 10 µM, first compound 10 µM
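Note: drug exposure lasted seven days after spheroids formed for three days.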
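Throughout, for viability, T/C: percent of DMSO vehicle control viability which is 100%.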

SMILES | IC50 (second compound 0.1 µM) [µM] | IC50 (second compound 0.316 µM) [µM] | IC50 (second compound 1 µM) [µM] | IC50 (second compound 3.16 µM) [µM] | IC50 (second compound 10 µM) [µM] | viability, T/C [1] [%] | viability, T/C [2] [%] | viability, T/C [3] [%] | viability, T/C [4] [%] | viability, T/C [5] [%] | viability, T/C [6] [%] | viability, T/C [7] [%] | viability, T/C [8] [%] | viability, T/C [9] [%] | viability, T/C [10] [%] | viability, T/C [11] [%] | viability, T/C [12] [%] | viability, T/C [13] [%] | viability, T/C [14] [%] | viability, T/C [15] [%] | further results
CC1OCC2(CCN(c3cnc(Sc4ccnc(N)c4Cl)c(N)n3)CC2)C1N (stereo not given) + COc1cc2nc(C)nc(NC(C)c3cc(N)cc(C(F)(F)F)c3)c2cc1OC1CCOC1 | 0.242 | 0.127 | 0.102 | 0.053 | < 0.0316 | 70.2 | 60.1 | 46.6 | 36.8 | 30.2 | 26.9 | 69.2 | 53 | 39.9 | 33.1 | 29.2 | 26.1 | 62.4 | 51 | 36.1 | viability, T/C [16]: 31.1%; viability, T/C [17]: 26.3%; viability, T/C [18]: 24.3%; viability, T/C [19]: 56.1%; viability, T/C [20]: 42.4%; viability, T/C [21]: 33.5%; viability, T/C [22]: 27.5%; viability, T/C [23]: 23.8%; viability, T/C [24]: 21.7%; viability, T/C [25]: 23.1%; viability, T/C [26]: 20.2%; viability, T/C [27]: 17.4%; viability, T/C [28]: 14.2%; viability, T/C [29]: 15.4%; viability, T/C [30]: 13.2%
Cn1nccc1Nc1nccc(-c2cc3c(s2)C(C)(C)N(CCN2CCOCC2)C3=O)n1 + COc1cc2nc(C)nc(NC(C)c3cc(N)cc(C(F)(F)F)c3)c2cc1OC1CCOC1 | 0.0647 | 0.0547 | 0.0472 | 0.0326 | < 0.0316 | 74.8 | 34.9 | 14.8 | 11.1 | 9.76 | 9.52 | 66.2 | 32.1 | 16.4 | 10.4 | 8.74 | 9.26 | 60.1 | 31.6 | 15.8 | viability, T/C [16]: 10.9%; viability, T/C [17]: 9.75%; viability, T/C [18]: 10.1%; viability, T/C [19]: 50.7%; viability, T/C [20]: 26.1%; viability, T/C [21]: 14.3%; viability, T/C [22]: 10.2%; viability, T/C [23]: 8.41%; viability, T/C [24]: 10.2%; viability, T/C [25]: 25.4%; viability, T/C [26]: 15.9%; viability, T/C [27]: 10.3%; viability, T/C [28]: 9.05%; viability, T/C [29]: 9.73%; viability, T/C [30]: 7.56%
